Measurements: patent US20250205268A1, “TREATMENT OF VIRUSES WITH ANTIVIRAL NUCLEOSIDES” (priority 2021, published 2025)
Where two headings read alike, the source gives them in different places.

Tests used:
[1] = Phase 1 study
[2] = system: SARS-CoV-2; format: in vivo
[3] = system: SARS-CoV-2 RNA; format: in vivo; conditions: for SARS-CoV-2 RNA titer, mean / SARS-CoV-2 RNA titer, mean change from baseline: interim
[4] = system: SARS-CoV-2 RNA; assay: Phase 2a trial: RT-PCR for SARS-CoV-2 RNA in nasopharyngeal swabs (Example 2); format: in vivo; conditions: 200 mg; Day 3
[5] = MITT population, through day 29
[6] = safety population, all postbaseline visits through day 29
[7] = subgroup hospitalized after randomization, vs placebo
[8] = baseline RNA titer >10^6 copies/ml, Day 3
[9] = baseline RNA titer >10^6 copies/ml, Day 10
[10] = baseline RNA titer >10^6 copies/ml, Day 15
[11] = baseline RNA titer >10^6 copies/ml, Day 29
[12] = baseline RNA titer >10^6 copies/ml, EOT (Day 5)
[13] = baseline RNA titer ≤10^6 copies/ml, Day 3
[14] = baseline RNA titer ≤10^6 copies/ml, Day 10
[15] = baseline RNA titer ≤10^6 copies/ml, Day 15
[16] = baseline RNA titer ≤10^6 copies/ml, Day 29
[17] = baseline RNA titer ≤10^6 copies/ml, EOT (Day 5)

CC(C)C(=O)OC[C@H]1O[C@@H](n2ccc(NO)nc2=O)[C@H](O)[C@@H]1O [Compound A, {(2R,3S,4R,5R)-3,4-dihydroxy-5-[4-(hydroxyimino)-2-oxo-3,4-dihydropyrimidin-1 (2H)-yl]oxolan-2-yl}methyl 2-methylpropanoate]
participants with serious adverse events resulting in hospitalization (400-mg group): 3.2%
participants with serious adverse events resulting in hospitalization (800-mg group): 1.8%
incidence of treatment-associated adverse events (800-mg group compared with the other groups): lowest
adverse events that led to discontinuation (Compound A groups combined): 1.4%
adverse events (all doses, similar to placebo): few, and mainly low-grade
Grade 3 or higher adverse events (combined Compound A groups): 5.0%
hematology or clinical chemistry data (during the study): no dose-related trends
hematological laboratory tests [1]: no clinically significant abnormalities
liver parameters ([1]; any dose): No clinically significant abnormalities in liver parameters
serum lipase ([1]; at least 3 days after last dose, not dose related): Transient elevations of serum lipase
proportion of participants who had a COVID-19-related acute care visit [2, 5]: 6.6%
proportion of participants who had an acute care visit [2, 5]: 7.2%
RRR, COVID-19-related acute care visit ([2]; MITT population, vs placebo): 33.8%
RRR, acute care visit ([2]; MITT population, vs placebo): 32.1%
RRR, all respiratory interventions ([2]; MITT population, vs placebo): 34.3%
RRR, high-flow heated and humidified device ([2]; MITT population, vs placebo): 26.1%
RRR, invasive mechanical ventilation ([2]; MITT population, vs placebo): 64.1%
RRR, noninvasive mechanical ventilation ([2]; MITT population, vs placebo): 75.4%
RRR, oxygen therapy with conventional oxygen ([2]; MITT population, vs placebo): 23.6%
mean change from baseline in CRP values versus placebo [2, 6]: earlier and larger reductions
mean change from baseline in SpO2 values versus placebo [2, 6]: earlier and larger improvements
median time to hospital discharge ([2]; subgroup hospitalized after randomization): 9 days
RRR, all respiratory interventions [2, 7]: 21.3%
RRR, conventional oxygen [2, 7]: 12.8%
RRR, high-flow heated and humidified device [2, 7]: −4.7%
RRR, invasive mechanical ventilation [2, 7]: 49.2%
RRR, noninvasive mechanical ventilation [2, 7]: 65.1%
reductions in viral load from baseline versus placebo ([3]; Part 2 interim analysis): significantly greater reductions in viral load from baseline at Days 3 and 5 than placebo
reductions from baseline in mean viral load versus placebo ([3]; final all-randomized analysis, days 3, 5 (end-of-treatment visit), and 10): greater reductions from baseline in mean viral load than placebo
SARS-CoV-2 RNA titer, mean ([3]; MITT, Baseline): 6.85 log^10 copies/ml
SARS-CoV-2 RNA titer, mean ([3]; MITT, Day 3): 5.82 log^10 copies/ml
SARS-CoV-2 RNA titer, mean change from baseline ([3]; MITT, Day 3): −1.04 log^10 copies/ml
SARS-CoV-2 RNA titer, mean ([3]; MITT, Day 10): 3.70 log^10 copies/ml
SARS-CoV-2 RNA titer, mean change from baseline ([3]; MITT, Day 10): −3.18 log^10 copies/ml
SARS-CoV-2 RNA titer, mean ([3]; MITT, Day 15): 3.20 log^10 copies/ml
SARS-CoV-2 RNA titer, mean change from baseline ([3]; MITT, Day 15): −3.69 log^10 copies/ml
SARS-CoV-2 RNA titer, mean ([3]; MITT, Day 29): 2.90 log^10 copies/ml
SARS-CoV-2 RNA titer, mean change from baseline ([3]; MITT, Day 29): −4.08 log^10 copies/ml
SARS-CoV-2 RNA titer, mean ([3]; MITT, EOT (Day 5)): 4.80 log^10 copies/ml
SARS-CoV-2 RNA titer, mean change from baseline ([3]; MITT, EOT (Day 5)): −2.09 log^10 copies/ml
SARS-CoV-2 RNA titer, mean ([3]; baseline RNA titer >10^6 copies/ml, Baseline): 7.71 log^10 copies/ml
SARS-CoV-2 RNA titer, mean [3, 8]: 6.56 log^10 copies/ml
SARS-CoV-2 RNA titer, mean change from baseline [3, 8]: −1.17 log^10 copies/ml
SARS-CoV-2 RNA titer, mean [3, 9]: 3.94 log^10 copies/ml
SARS-CoV-2 RNA titer, mean change from baseline [3, 9]: −3.79 log^10 copies/ml
SARS-CoV-2 RNA titer, mean [3, 10]: 3.26 log^10 copies/ml
SARS-CoV-2 RNA titer, mean change from baseline [3, 10]: −4.47 log^10 copies/ml
SARS-CoV-2 RNA titer, mean [3, 11]: 2.93 log^10 copies/ml
SARS-CoV-2 RNA titer, mean change from baseline [3, 11]: −4.87 log^10 copies/ml
SARS-CoV-2 RNA titer, mean [3, 12]: 5.25 log^10 copies/ml
SARS-CoV-2 RNA titer, mean change from baseline [3, 12]: −2.49 log^10 copies/ml
SARS-CoV-2 RNA titer, mean ([3]; baseline RNA titer ≤10^6 copies/ml, Baseline): 4.58 log^10 copies/ml
SARS-CoV-2 RNA titer, mean [3, 13]: 3.88 log^10 copies/ml
SARS-CoV-2 RNA titer, mean change from baseline [3, 13]: −0.67 log^10 copies/ml
SARS-CoV-2 RNA titer, mean [3, 14]: 3.05 log^10 copies/ml
SARS-CoV-2 RNA titer, mean change from baseline [3, 14]: −1.49 log^10 copies/ml
SARS-CoV-2 RNA titer, mean [3, 15]: 3.01 log^10 copies/ml
SARS-CoV-2 RNA titer, mean change from baseline [3, 15]: −1.51 log^10 copies/ml
SARS-CoV-2 RNA titer, mean [3, 16]: 2.81 log^10 copies/ml
SARS-CoV-2 RNA titer, mean change from baseline [3, 16]: −1.76 log^10 copies/ml
SARS-CoV-2 RNA titer, mean [3, 17]: 3.56 log^10 copies/ml
SARS-CoV-2 RNA titer, mean change from baseline [3, 17]: −1.00 log^10 copies/ml
Change from baseline in SARS-CoV-2 viral load, least squares mean [4]: −0.783 log10 copies/ml
Difference in least squares mean viral load change vs placebo [4]: 0.064 log10 copies/ml
